# Data reported in US20090312374A1, “DERIVATIVES OF 4,6-DISUBSTITUTED 1,2,4-TRIAZOLO- 1,3,4-THIADIAZOLE, A PROCESS AND USES THEREOF” (UNIVERSITY OF MYSORE, priority 2005, published 2009).
# Legend:
# [1] = tested on: advanced squamous-cell cervical cancer; details: 125 mg/m2 weekly, cited from earlier work
# [2] = tested on: cervical cancer cell line; experiment: Immunofluorescence (Hoechst 33258) apoptosis, TN and NC series, cervical cancer; format: cell-based; details: versus breast cancer and normal cells; FIG. 1
# Source text: (§1) Subsequently, the cells were washed with PBS.
# H2AX = experiment: Western blot of isolated histones probed with H2AX antibody; format: cell-based; details: HeLa cells, 24 h compound treatment
# Protocol: HeLa cells (3×10^6 cells per 90-mm dish) were seeded overnight, and histones were extracted from 24 h of compound treated cells as reported previously. In brief, cells were harvested, washed in ice-cold buffer A (150 mM KCl, 20 mM HEPES, pH 7.9, 0.1 mM EDTA, and 2.5 mM MgCl2) and lysed in buffer A containing 250 mM sucrose and 1% (v/v) Triton X-100. Nuclei were recovered by centrifugation and washed, and proteins were extracted for 1 h using 0.25 M HCl. The proteins were precipitated with 25% (w/v) trichloroacetic acid and sequentially washed with ice-cold acidified acetone (20 μl of 12 N HCl in 100 ml of acetone) and acetone, air-dried, and dissolved in the sample buffer (5.8 M urea, 0.9 M glacial acetic acid, 16% glycerol, and 4.8% 2-mercaptoethanol). The histones (equal amounts in all lanes) were resolved on SDS PAGE gel.
# The western blot analysis was done using the isolated histones and probed with H2AX antibody and the results say that 2 of the compounds (NC-2 and NC-5) get hyperphosphorylated.
# Breast cancer = experiment: Immunofluorescence (Hoechst 33258) apoptosis, TN and NC series, breast cancer; format: cell-based; details: FIG. 1
# Source text: as §1
# [3] = twenty-one patients, advanced squamous-cell cervical cancer
compound,measurement,setting,value
Nc1nncs1,activity in previously treated cervical carcinoma patients,[1],minimal activity
same,patients with increasing disease,[1]; [3],14
same,patients with partial response,[1]; [3],One
same,patients with stable disease,[1]; [3],six
"CCc1nnc2sc(-c3cccc(Cl)c3Cl)nn12 [NC-2, 6-(2,3-dichlorophenyl)-3-ethyl-[1,2,4]triazolo[3,4-b][1,3,4]thiadiazole]",selected as specific to cervical cancer cell line i.e. squamous cancer cell lines,[2],selected
same,H2AX phosphorylation (western blot of isolated histones),H2AX,hyperphosphorylated
"Clc1ccc(-c2nnc3sc(-c4cccc(Cl)c4Cl)nn23)cc1 [NC-5, 6-(2,3-dichlorophenyl)-3-(4-chlorophenyl)-[1,2,4]triazolo[3,4-b][1,3,4]thiadiazole]",selected as specific to cervical cancer cell line i.e. squamous cancer cell lines,[2],selected
same,H2AX phosphorylation (western blot of isolated histones),H2AX,hyperphosphorylated
"CCc1nnc2sc(C3CCc4cc(F)ccc4O3)nn12 (stereo not drawn) [TN-2, 6-(6-fluorochroman-2-yl)-3-ethyl-[1,2,4]triazolo[3,4-b][1,3,4]thiadiazole]",extent of apoptosis,Breast cancer,little apoptosis
"Fc1ccc2c(c1)CCC(c1nn3c(-c4ccccc4)nnc3s1)O2 (stereo not drawn) [TN-3, 6-(6-fluorochroman-2-yl)-3-phenyl-[1,2,4]triazolo[3,4-b][1,3,4]thiadiazole]",selected as specific to cervical cancer cell line i.e. squamous cancer cell lines,[2],selected
"Cc1ccc(-c2nnc3sc(C4CCc5cc(F)ccc5O4)nn23)cc1 (stereo not drawn) [TN-4, 6-(6-fluorochroman-2-yl)-3-p-tolyl-[1,2,4]triazolo[3,4-b][1,3,4]thiadiazole]",selected as specific to cervical cancer cell line i.e. squamous cancer cell lines,[2],selected
"Fc1ccc2c(c1)CCC(c1nn3c(-c4ccc(Cl)cc4)nnc3s1)O2 (stereo not drawn) [TN-5, 3-(4-chlorophenyl)-6-(6-fluorochroman-2-yl)-[1,2,4]triazolo[3,4-b][1,3,4]thiadiazole]",extent of apoptosis,Breast cancer,little apoptosis
